Read-outs that look alike come from different tables or passages of the source.
Assays:
[1] = target: T1, human KEAP1 (N-term, residues 321-609) (Homo sapiens, UniProt Q14145); assay: KEAP1 Kelch Fluorescence Polarization (FP) Assay; type: binding; details: inhibition of Kelch domain-NRF2 interaction; 2 nM FITC-labelled NRF2 peptide, 25 nM KEAP1, 1 h room temperature; compounds below 10 nM cannot be differentiated
T1 construct: human KEAP1 (N-term, residues 321-609)
Summary of the method: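 Compounds in 12-point curves (top 10 μM) displaced 2 nM FITC-labelled NRF2 peptide from 25 nM KEAP1 residues 321-609 over 1 h at room temperature. Polarization read at 470/530 nm, window set by 50 μM unlabelled peptide; four-parameter fit gave IC50, floor 10 nM.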

[2] = test system: NRF2 mediated gene NAD(P)H:quinone acceptor oxidoreductase 1 (NQO1) in BEAS-2B cells; assay: Beas2B NQO1 mRNA Cell Based Assay; design: species or system human; details: Homo sapiens
Protocol: Beas2B NQO1 mRNA Cell Based Assay
The up regulation of the NRF2 mediated gene NAD(P)H:quinone acceptor oxidoreductase 1 (NQO1) was measured using the following assay method: BEAS-2B cells (ATCC CRL-9609) were plated in 96-well clear plates at 20,000 cells/well in 75 μL of cell culture media and incubated overnight (37° C., 5% CO2). On day 2, 25 μL of compound or controls were added to the cells for 24 h. On day 3, the medium was aspirated from the plate and the Cells-to-CT™ 1-Step TaqMan® Kit (Ambion A25603) was used to perform expression analysis directly from cultured cells without RNA purification according to the manufacturer's instructions.
Briefly, cells were washed with ice cold PBS and 22.5 μL of room-temperature DNase/Lysis solution was added to the cells and incubated at room temperature for 5 minutes. To stop the reaction, 2.25 μL of stop solution was added to the cell lysate. The samples were diluted 1:5 using nuclease free water and 2.5 μL transferred into the PCR plate. Real-time PCR was performed using the C-1000 Thermal Cycler (Bio-Rad) using human beta actin as the internal control. The cDNA was amplified with a specific primer for NQO1 using the 1-step RT-PCR master mix (Ambion Cells-to-CTTM 1-Step TaqMan® Kit A25603). The primers/probes sets that were used for amplification of cDNA were obtained from TaqMan Gene Expression Assays (Applied Biosystems). The comparative CT (ΔΔCT) relative quantification method was used to calculate the relative mRNA level of the target gene NQO1 as described in the Applied Biosystems Chemistry Guide. The data are expressed as an increase in target gene mRNA compared to vehicle (0.1% DMSO) control and the EC50 values were determined by fitting the data to a four parameter logistic fit using XLfit or XE Runner within ActivityBase.

[3] = BEAS-2B cells, compound for 24 h, increase in NQO1 mRNA compared to vehicle (0.1% DMSO) control, read-out: EC50

T1 sequence (Q14145 321-609): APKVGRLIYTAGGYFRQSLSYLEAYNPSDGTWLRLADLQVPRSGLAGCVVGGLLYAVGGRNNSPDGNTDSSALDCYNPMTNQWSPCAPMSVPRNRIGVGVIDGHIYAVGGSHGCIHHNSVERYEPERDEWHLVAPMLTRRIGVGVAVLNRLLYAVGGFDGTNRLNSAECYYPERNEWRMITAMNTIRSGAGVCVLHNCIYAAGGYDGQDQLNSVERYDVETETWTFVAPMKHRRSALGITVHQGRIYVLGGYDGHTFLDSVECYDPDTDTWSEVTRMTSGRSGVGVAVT

CNC(=O)[C@H]1CCCC[C@H]1C(=O)N1CCc2c(Br)ccc(OCc3noc(C(C)C)n3)c2[C@H]1CN1CCCC1=O [Example 55, (1S,2R)-2-((S)-5-bromo-8-((5-isopropyl-1,2,4-oxadiazol-3-yl)methoxy)-1-((2-oxopyrrolidin-1-yl)methyl)-1,2,3,4-tetrahydroisoquinoline-2-carbonyl)-N-methylcyclohexane-1-carboxamide]
IC50 [1]: 0.054 µM
EC50 [2, 3]: 0.33 µM

CNC(=O)C1CCCC1C(=O)N1CCc2c(Cl)ccc(OCc3nnn(C)c3C(F)F)c2[C@H]1CN1CCCC1=O (single isomer, unassigned) [Example 65]
IC50 [1]: 0.018 µM
EC50 [2, 3]: 1.86 µM

CNC(=O)[C@H]1CCCC[C@H]1C(=O)N1CCc2c(Cl)ccc(OCc3noc4ccccc34)c2[C@H]1CN1CCCC1=O [Example 52, (1S,2R)-2-((S)-8-(benzo[d]isoxazol-3-ylmethoxy)-5-chloro-1-((2-oxopyrrolidin-1-yl)methyl)-1,2,3,4-tetrahydroisoquinoline-2-carbonyl)-N-methylcyclohexane-1-carboxamide]
IC50 [1]: 0.038 µM
EC50 [2, 3]: 0.285 µM

CNC(=O)C1OCCC1C(=O)N1CCc2c(Cl)ccc(OCc3nnn(C)c3C(F)F)c2[C@H]1CN1CCCC1=O (single isomer, unassigned) [Example 82]
IC50 [1]: 4.07 µM
EC50 [2, 3]: 1.74 µM

CNC(=O)[C@@]1(C)CCC[C@H]1C(=O)N1CCc2c(Cl)ccc(OCc3nnn(C)c3C(F)F)c2[C@H]1CN1CCC(C)C1=O (single isomer, unassigned) [Example 95]
IC50 [1]: 0.023 µM
EC50 [2, 3]: 0.565 µM

CCNC(=O)[C@H]1CCCC[C@H]1C(=O)N1CCc2cccc(OCCNC(=O)c3cc(C)on3)c2[C@H]1CN1C(=O)c2ccccc2C1=O [Example 6, N-(2-(((S)-1-((1,3-dioxoisoindolin-2-yl)-methyl)-2((1R,2S)-2-(ethylcarbamoyl)cyclohexane-1-carbonyl)-1,2,3,4-tetrahydroisoguinolin-8-yl)oxy)ethyl)-5-methylisoxazole-3-carboxamide]
IC50 [1]: 0.196 µM
EC50 [2, 3]: 2.36 µM

CNC(=O)[C@@]1(C)CCCC[C@H]1C(=O)N1CCc2c(Cl)ccc(OCc3nnn(C)c3C(F)(F)F)c2[C@H]1CN1CCCC1=O [Example 91, (1S,2R)-2-((S)-5-chloro-8-((1-methyl-5-(trifluoromethyl)-1H-1,2,3-triazol-4-yl)methoxy)-1-((2-oxopyrrolidin-1-yl)methyl)-1,2,3,4-tetrahydroisoquinoline-2-carbonyl)-N,1-dimethylcyclohexane-1-carboxamide]
IC50 [1]: 0.0098 µM
EC50 [2, 3]: 0.607 µM

CNC(=O)[C@@]1(C)CCCC[C@H]1C(=O)N1CCc2c(Cl)ccc(OCc3nnn(C)c3C)c2[C@H]1CN1CC2(CC2)CC1=O [Example 101, (1S,2R)-2-((S)-5-chloro-8-((1,5-dimethyl-1H-1,2,3-triazol-4-yl)methoxy)-1-((6-oxo-5-azaspiro[2.4]heptan-5-yl)methyl)-1,2,3,4-tetrahydroisoquinoline-2-carbonyl)-N,1-dimethylcyclohexane-1-carboxamide]
IC50 [1]: 0.0061 µM
EC50 [2, 3]: 0.018 µM

CNC(=O)N1CCCC[C@H]1C(=O)N1CCc2c(Cl)ccc(OCc3cn(C)nn3)c2[C@H]1CN1CCCC1=O [Example 92, (S)-2-((S)-5-chloro-8-((1-methyl-1H-1,2,3-triazol-4-yl)methoxy)-1-((2-oxopyrrolidin-1-yl)methyl)-1,2,3,4-tetrahydroisoquinoline-2-carbonyl)-N-methylpiperidine-1-carboxamide]
IC50 [1]: 0.012 µM
EC50 [2, 3]: 0.565 µM

CNC(=O)[C@@]1(C)CCC[C@H]1C(=O)N1CCc2c(Cl)ccc(OCc3nnn(C)c3C(F)F)c2[C@H]1CN1CC2(CC2)CC1=O [Example 94, (1S,2R)-2-((S)-5-chloro-8-((5-(difluoromethyl)-1-methyl-1H-1,2,3-triazol-4-yl)methoxy)-1-((6-oxo-5-azaspiro[2.4]heptan-5-yl)methyl)-1,2,3,4-tetrahydroisoquinoline-2-carbonyl)-N,1-dimethylcyclopentane-1-carboxamide]
IC50 [1]: 0.013 µM
EC50 [2, 3]: 0.148 µM

CNC(=O)[C@H]1CCCC[C@H]1C(=O)N1CCc2c(Cl)ccc(OCc3ccc4ncn(C)c4n3)c2[C@H]1CN1CCCC1=O [Example 80, (1S,2R)-2-((S)-5-chloro-8-((3-methyl-3H-imidazo[4,5-b]pyridin-5-yl)methoxy)-1-((2-oxopyrrolidin-1-yl)methyl)-1,2,3,4-tetrahydroisoquinoline-2-carbonyl)-N-methylcyclohexane-1-carboxamide]
IC50 [1]: 0.371 µM
EC50 [2, 3]: 2.25 µM

CNC(=O)[C@H]1CCCC[C@H]1C(=O)N1CCc2c(Cl)ccc(OCc3cn(C)nn3)c2[C@H]1CN1CCCC1=O [Example 74, (1S,2R)-2-((S)-5-chloro-8-((1-methyl-1H-1,2,3-triazol-4-yl)methoxy)-1-((2-oxopyrrolidin-1-yl)methyl)-1,2,3,4-tetrahydroisoquinoline-2-carbonyl)-N-methylcyclohexane-1-carboxamide]
IC50 [1]: 0.016 µM
EC50 [2, 3]: 0.334 µM

CNC(=O)[C@H]1CCCC[C@H]1C(=O)N1CCc2c(Cl)ccc(OCc3cnc4c(c3)ncn4C)c2[C@H]1CN1CCCC1=O [Example 68, (1S,2R)-2-((S)-5-chloro-8-((3-methyl-3H-imidazo[4,5-b]pyridin-6-yl)methoxy)-1-((2-oxopyrrolidin-1-yl)methyl)-1,2,3,4-tetrahydroisoquinoline-2-carbonyl)-N-methylcyclohexane-1-carboxamide]
IC50 [1]: 0.013 µM
EC50 [2, 3]: 0.145 µM

CNC(=O)[C@H]1CCCC[C@H]1C(=O)N1CCc2c(Cl)ccc(OCc3nn(C)c4ccccc34)c2[C@H]1CN1CCCC1=O [Example 81, (1S,2R)-2-((S)-5-chloro-8-((1-methyl-1H-indazol-3-yl)methoxy)-1-((2-oxopyrrolidin-1-yl)methyl)-1,2,3,4-tetrahydroisoquinoline-2-carbonyl)-N-methylcyclohexane-1-carboxamide]
IC50 [1]: 0.723 µM
EC50 [2, 3]: > 10 µM

CCNC(=O)[C@H]1CCCC[C@H]1C(=O)N1CCc2c(Cl)ccc(OCc3noc4ccccc34)c2[C@H]1CN1CCCC1=O [Example 53, (1S,2R)-2-((S)-8-(benzo[d]isoxazol-3-ylmethoxy)-5-chloro-1-((2-oxopyrrolidin-1-yl)methyl)-1,2,3,4-tetrahydroisoquinoline-2-carbonyl)-N-ethylcyclohexane-1-carboxamide]
IC50 [1]: 0.047 µM
EC50 [2, 3]: 0.189 µM

CNC(=O)[C@H]1CCCC[C@H]1C(=O)N1CCc2c(Cl)ccc(OCc3noc(C(C)C)n3)c2[C@H]1CN1CCCC1=O [Example 57, (1S,2R)-2-((S)-5-chloro-8-((5-isopropyl-1,2,4-oxadiazol-3-yl)methoxy)-1-((2-oxopyrrolidin-1-yl)methyl)-1,2,3,4-tetrahydroisoquinoline-2-carbonyl)-N-methylcyclohexane-1-carboxamide]
IC50 [1]: 0.112 µM
EC50 [2, 3]: 4 µM

CNC(=O)N1CCOC[C@H]1C(=O)N1CCc2c(Cl)ccc(OCc3nnn(C)c3C(F)F)c2[C@H]1CN1CCCC1=O [Example 87, (S)-3-((S)-5-chloro-8-((5-(difluoromethyl)-1-methyl-1H-1,2,3-triazol-4-yl)methoxy)-1-((2-oxopyrrolidin-1-yl)methyl)-1,2,3,4-tetrahydroisoquinoline-2-carbonyl)-N-methylmorpholine-4-carboxamide]
IC50 [1]: 0.039 µM
EC50 [2, 3]: 4.13 µM

CNC(=O)[C@@]1(C)CCCC[C@H]1C(=O)N1CCc2c(Cl)ccc(OCc3cn(C)nn3)c2[C@H]1CN1CC2(CC2)CC1=O [Example 102, (1S,2R)-2-((S)-5-chloro-8-((1-methyl-1H-1,2,3-triazol-4-yl)methoxy)-1-((6-oxo-5-azaspiro[2.4]heptan-5-yl)methyl)-1,2,3,4-tetrahydroisoquinoline-2-carbonyl)-N,1-dimethylcyclohexane-1-carboxamide]
IC50 [1]: 0.012 µM
EC50 [2, 3]: 0.059 µM

CNC(=O)N1CCC[C@H]1C(=O)N1CCc2c(Cl)ccc(OCc3nnn(C)c3C(F)F)c2[C@H]1CN1CCCC1=O [Example 67, (S)-2-((S)-5-chloro-8-((5-(difluoromethyl)-1-methyl-1H-1,2,3-triazol-4-yl)methoxy)-1-((2-oxopyrrolidin-1-yl)methyl)-1,2,3,4-tetrahydroisoquinoline-2-carbonyl)-N-methylpyrrolidine-1-carboxamide]
IC50 [1]: 0.029 µM
EC50 ([2]; BEAS-2B, 24 h): 1.36 µM

Cn1nnc(COc2ccc(Cl)c3c2[C@@H](CN2CCCC2=O)N(C(=O)[C@@H]2CCCCN2C(=O)C(F)F)CC3)c1C(F)F [Example 84]
IC50 [1]: 0.161 µM
EC50 ([2]; BEAS-2B, 24 h): 1.53 µM

— US20230159511A1, “TETRAHYDROISOQUINOLINE COMPOUNDS AS NRF2 ACTIVATORS” (C4X Discovery Limited, priority 2020, published 2023)
